# Data as given in patent US9872493B2, “Method for promoting plant growth” (SUMITOMO CHEMICAL COMPANY, LIMITED, priority 2012, dated 2018).
# Experiments:
# [1] = system: Rice (Variety: Nipponbare); assay: Test for evaluating promotion of root growth by hydroponics of rice (Test Examples 1-3); format: in vivo
# Experimental: Rice (Variety: Nipponbare)
# (§1) A DMSO solution, which contained one of the compounds 14, 18, 21, 23, 26, 28, 29, 30, 35, 36, 37, 39 and 40 of the present invention at a concentration of 100,000 ppm, was added to Hoagland hydroponic solution (Hoagland and Arnon, California Agricultural Experiment Station 1950 Circular 347 pp. 34) of ¼-fold concentration at a volume ratio of 1/10,000. In this manner, hydroponic solutions containing one of the compounds 14, 18, 21, 23, 26, 28, 29, 30, 35, 36, 37, 39 and 40 of the present invention at 10 ppm were prepared respectively. As an untreated control plot, a hydroponic solution obtained by adding DMSO to Hoagland hydroponic solution of ¼-fold concentration at a volume ratio of 1/10,000 was used.
# (§2) Rice seeds were soaked in a 1% aqueous sodium hypochlorite solution for 10 minutes, then soaked in a 70% ethanol solution for surface sterilization, and then washed with distilled water. The sterilized seeds were soaked in a hydroponic solution containing the test compound described above at 10 ppm and incubated in a dark place for 3 days at 28° C. to perform treatment for hastening germination.
# (§3) Thereafter, 30 ml of hydroponic solution containing the test compound at 10 ppm was dispensed in a plastic tube (diameter of 20 mm×height of 113 mm) of which the side was covered with cardboard to block light. A float prepared using a styrene board and vinyl mesh was floated, and the rice seeds that had undergone the treatment for hastening germination were placed on the float on the surface of the hydroponic solution. The seeds were cultivated for 3 days at 26° C., an illuminance of 4,000 lux of the top surface of the tube, a humidity of 50%, and a day length of 16 hours.
# The nursery plants of rice obtained after cultivating were measured in terms of the length of seminal root by using WinRHIZO system (manufactured by Regent Instruments Inc). For each test plot, an average of the measured values of the seminal root of 4 or 5 individuals were determined.
# as §1, with “compounds 7, 8, 9, 10, 12, 17, 20,” for “compounds 14, 18,”, “21, 25, 27,” for “21, 23, 26,”, “30, 34,” for “30,”, “37, 38,” for “37,”, “of 10,000” for “of 100,000”, “at 1” for “at 10”
# as §2, with “at 1” for “at 10”
# as §3, with “1” for “10”
# The nursery plants of rice obtained after cultivation were measured in terms of the length of seminal root by using WinRHIZO system (manufactured by Regent Instruments Inc). […]
# [2] = system: Nicotiana benthamiana; assay: Test for evaluating growth promotion under low-temperature stress by hydroponics of Nicotiana benthamiana (Test Examples 4-6); format: in vivo; details: 7 days at 1.5±1.0° C. low-temperature stress, then 3 days at 22° C., green leaf area vs untreated control, read-out: value of a relative leaf area (equation (1)); for relative green leaf area after low-temperature stress at 10 ppm: compound at 10 ppm; for relative green leaf area after low-temperature stress at 0.1 ppm: compound at 0.1 ppm; for relative green leaf area after low-temperature stress at 1 ppm: compound at 1 ppm
# Experimental: A DMSO solution, which contained one of the compounds 5, 14, 22, 23, 24, 25, 26, 28, 30, 31, 32, 33, 34, 35, 38, 39 and 40 of the present invention at a concentration of 10,000 ppm, was prepared. The DMSO solution of the compound of the present invention was added at a volume ratio of 1/1,000 to the Murashige•Scoog medium of a ½-fold concentration (a medium containing 2.3 g of mixed salts (manufactured by Wako Pure Chemical Industries, Ltd.), 200 mg of Myo-inositol (manufactured by Sigma-Aldrich Co. LLC.), 2 mg of nicotinic acid (manufactured by Wako Pure Chemical Industries, Ltd.), 2 mg of pyridoxine hydrochloride (manufactured by Wako Pure Chemical Industries, Ltd.), 20 mg of thiamine hydrochloride (manufactured by Wako Pure Chemical Industries, Ltd.), 20 g of sucrose (manufactured by Wako Pure Chemical Industries, Ltd.), and 1 g of MES (manufactured by DOJINDO LABORATORIES) per 1 L of water and having pH adjusted to 5.8), thereby preparing a medium containing the compound of the present invention at a concentration of 10 ppm.
# Seeds of Nicotiana benthamiana were seeded in the 5 μL of the medium and cultured overnight at 22° C. Thereafter, 45 μL of the medium containing the compound of the present invention at a concentration of 10 ppm was added thereto, and the seeds are cultivated for 7 days at 22° C., an illuminance of 4,000 lux, and a day length of 16 hours, thereby the nursery plants raised from the Nicotiana benthamiana were treated with the compound.
# Moreover, instead of the above medium a test plot, which was obtained by performing the same treatment by using a medium prepared by adding DMSO to the Murashige•Scoog medium of ½-fold concentration at a volume ratio of 1/1,000, was used as a control plot not treated with the compound.
# The nursery plants of the Nicotiana benthamiana treated with the compound were subjected to low-temperature treatment by being cultivated for 7 days at 1.5±1.0° C., an illuminance of 2,000 lux, and a day length of 16 hours.
# The nursery plants of the Nicotiana benthamiana having undergone the low-temperature stress treatment were cultivated for 3 days at 22° C., an illuminance of 4,000 lux, and a day length of 16 hours. Thereafter, the area of green leaf was quantified by Scanalyzer HTS (manufactured by LemnaTec GmbH). Moreover, the value of the control plot not treated with the compound that had not yet been subjected to the low-temperature stress treatment was measured in the same manner. A value of a relative leaf area was calculated based on the following equation (1), and if the value of a relative leaf area was 5 or greater, the compound was evaluated to have a mitigating effect. As a result of the evaluation, it was confirmed that when the plant was treated with one of the compounds 5, 14, 22, 23, 24, 25, 26, 28, 30, 31, 32, 33, 34, 35, 38, 39 and 40 of the present invention at 10 ppm, the value of a relative leaf area was 5 or greater, compared to the area of green leaf of the control plot not treated with compound. Accordingly, it was confirmed that the treatment using the compound of the present invention brings about a growth promotion effect. Relative leaf area=100*(a green area of a plot treated with the compound of the present invention−a green area of a control plot not treated with the compound of the present invention)/(a green area of a control plot not treated with the compound of the present invention that has not yet been subjected to low-temperature stress treatment−a green area of a control plot not treated with the compound of the present invention) Equation (1): […]
# A DMSO solution, which contained one of the compounds 6, 7, 8, 11, 12, 15, 19, 23, 24, 25, 28, 30, 31, 33, 34, 36, 37, 38 and 39 of the present invention at a concentration of 1,000 ppm, was prepared. […]
SMILES,length of seminal root compared with the untreated control plot (in words) ([1]; 1 ppm),length of seminal root compared with the untreated control plot (in words) ([1]; 10 ppm),relative green leaf area after low-temperature stress at 10 ppm [2] [%],length of seminal root compared with the untreated control plot (in words) ([1]; 0.1 ppm),relative green leaf area after low-temperature stress at 0.1 ppm [2] [%],relative green leaf area after low-temperature stress at 1 ppm [2] [%]
O=C(NCc1ccccc1)c1csc2c(C(F)(F)F)cccc12 [Compound 40],obviously longer,obviously longer,≥ 5,–,–,–
CCOC(=O)c1csc2cc(C(F)(F)F)ccc12 [Compound 29],obviously longer,obviously longer,–,obviously longer,≥ 5,–
NC(=O)c1csc2cc(C(F)(F)F)ccc12 [Compound 30],obviously longer,obviously longer,≥ 5,obviously longer,≥ 5,≥ 5
O=C(O)c1csc2c(C(F)(F)F)cccc12 [Compound 34],obviously longer,–,≥ 5,obviously longer,≥ 5,≥ 5
"COC(=O)c1cccc2cc(C(F)(F)F)sc12 [Compound 10, methyl 2-trifluoromethylbenzo[b]thiophene-7-carboxylate]",obviously longer,–,–,–,≥ 5,–
"NC(=O)c1cccc2ccsc12 [Compound 7, benzo[b]thiophene-7-carboxamide]",obviously longer,–,–,–,–,≥ 5
O=C(Nc1ccccc1)c1csc2c(C(F)(F)F)cccc12 [Compound 39],obviously longer,obviously longer,≥ 5,obviously longer,–,≥ 5
"O=C(O)c1cccc2ccsc12 [Compound 6, benzo[b]thiophene-7-carboxylic acid]",–,–,–,obviously longer,–,≥ 5
CNC(=O)c1csc2cc(C(F)(F)F)ccc12 [Compound 31],–,–,≥ 5,obviously longer,≥ 5,≥ 5
NC(=O)c1csc2cccc(C(F)(F)F)c12 [Compound 19],–,–,–,obviously longer,–,≥ 5
O=C(NCc1ccccc1)c1c(C(F)(F)F)sc2ccccc12 [Compound 26],–,obviously longer,≥ 5,obviously longer,≥ 5,–
"O=C(O)c1c(C(F)(F)F)sc2ccccc12 [Compound 15, 2-trifluoromethylbenzo[b]thiophene-3-carboxylic acid]",–,–,–,obviously longer,–,≥ 5
Cc1sc2ccccc2c1C(=O)O [Compound 20],obviously longer,–,–,obviously longer,≥ 5,–
CCOC(=O)c1csc2c(C(F)(F)F)cccc12 [Compound 36],obviously longer,obviously longer,–,obviously longer,≥ 5,≥ 5
NC(=O)c1c(C(F)(F)F)sc2ccccc12 [Compound 23],–,obviously longer,≥ 5,–,–,≥ 5
CNC(=O)c1csc2c(C(F)(F)F)cccc12 [Compound 38],obviously longer,–,≥ 5,obviously longer,–,≥ 5
